[ ]: non-standard residue; d: D form. Gly(decyl) = CCCCCCCCCC[C@H](N)C(=O)O
Experiments:
TNF secretion = conditions: in words; literature reference; cited from earlier work
[1] = tested on: J774A.1 cells (a macrophage cell line); test: Suppression of LPS-stimulated TNF secretion by cyclic analogues of Copaxone (Example 6); assay type: cell-based; conditions: for TNF concentration: peptide 12.5 ug/ml as cyclodextrin complex, LPS 0.1 ug/ml, medium + LPS 637.6
Procedure: • 1. Two cyclic oligopeptides were prepared with the following structures: cyclo(-A-K-Σ-Y-E-K-A-Σ-E-Y-) cyclo(-A-K-Σ-E-Y-K-A-Σ-Y-E-) • All amino acids are in the L form unless indicated otherwise. • All amino acids are linked by peptide bonds. • A, K, Y and E represent the epitope-forming amino acids and Σ represents the associating functional group borne on the associating amino acid wherein the associating amino acid is an L-alpha aminocarboxylic acid and the associating functional group is a side-chain residue consisting of a straight aliphatic chain containing ten carbon atoms. • The cyclic oligopeptides were prepared as solutions in hexafluoro-isopropanol (HFIP) at a concentration of 10 mg/ml, then mixed with equal volumes of HFIP solution containing beta-hydroxypropyl cyclodextrin at a concentration of 50 mg/ml. The organic solutions were then dried down under nitrogen, and the peptide/cyclodextrin complex redissolved in distilled water to give a final concentration of cyclic oligopeptide of 1 mg/ml. • 2. J774A.1 cells (a macrophage cell line) were plated out in all the wells of a 24-well cluster plate at a seeding density of 3×10^5 cells/ml/well (1 ml RPMI 1640 culture medium per well), and incubated overnight at 37° C. in 5% CO2/air. • 3. The following day, the solutions from step 1 were administered to wells containing cells in step 2, to give three wells each with a final concentration of 12.5 ug/ml of peptide. Additional wells containing cyclodextrin alone at 62.5 ug/ml were also prepared. The remaining wells were left untreated. The plate was incubated for a further four hours at 37 degC. • 4. Lipopolysaccharide (from E. coli strain 0111 B4) was added to the wells receiving the cyclic oligopeptide solution, as well as three of the wells receiving no peptide. The final concentration of lipopolysaccharide was 0.1 ug/ml. • 5. The plate was incubated overnight, and the following day the supernatants were assayed for TNF using a commercial ELISA kit.

[2] = tested on: J774A.1 cells (a macrophage cell line); assay type: cell-based; conditions: peptide 12.5 ug/ml; CTB 10 ug/ml; CTB alone 690.8, medium control 67.5
[3] = tested on: J774A.1 cells (a macrophage cell line); test: Dose response: suppression of TNF secretion stimulated by lipopolysaccharide (LPS) in a macrophage cell line (Example 1); assay type: cell-based; conditions: LPS 0.625 ug/ml
Procedure: • 1. A cyclic octapeptide with the structure: cyclo(-DF-S-Σ-R-DF-S-Σ-R-) • was synthesised using standard methods based on the Merrifield resin-based technique, followed by solution-phase cyclisation. The purified peptide was prepared as a solution in distilled water at a concentration of 1 mg/ml. • R, F and S represent the epitope-forming amino acids and Σ represents the associating functional group borne on the associating amino acid wherein the associating amino acid is an L-alpha aminocarboxylic acid and the associating functional group is a side-chain residue consisting of a straight aliphatic chain containing ten carbon atoms. • All amino acids are in the L form unless indicated otherwise. • All amino acids are linked by peptide bonds. • 2. J774A.1 cells (a macrophage cell line) were plated out in all the wells of a 24-well cluster plates at a seeding density of 5×10^5 cells/ml/well (1 ml RPMI 1640 culture medium per well), and incubated overnight at 37° C. in 5% CO2/air. • 3. The following day, the solution from step 1 was administered to fifteen wells containing cells in step 2, to give three wells each with a final concentration of 50, 25, 12.5, 6.25 or 3.125 ug/ml. The remaining wells were left untreated. The plate was incubated for a further four hours at 37 degC. • 4. Lipopolysaccharide (from E. coli strain 0111 B4) was added to the wells receiving the octapeptide solution, as well as three of the wells receiving no peptide. The final concentration of lipopolysaccharide was 0.625 ug/ml. • 5. The plate was incubated overnight, and the following day the supernatants were assayed for TNF using a commercial ELISA kit.

[4] = tested on: J774-1 cells (a macrophage cell line); test: Suppression of TNF secretion stimulated by LPS in a macrophage cell line, varying epitope order and stereochemistry of associating amino acids (Example 3); assay type: cell-based; conditions: peptide 50 ug/ml; LPS 1.25 ug/ml; LPS alone 1861.9
Procedure: • 1. Cyclic octapeptides were prepared with the following structures: cyclo(-DF-S-ΣL-R-DF-S-ΣL-R-) cyclo(-DF-S-ΣL-R-DF-S-ΣD-R-) cyclo(-DF-S-ΣD-R-DF-S-ΣD-R-) cyclo(-DF-R-ΣL-S-DF-R-ΣL-S-) cyclo(-DF-R-ΣL-S-DF-R-ΣD-S-) cyclo(-DF-R-ΣD-S-DF-R-ΣD-S-) wherein F, S and R are the epitope-forming amino acids, ΣL represents an associating amino acid which is an L-alpha aminocarboxylic acid in which the associating functional group is a side-chain residue consisting of an unbranched —C10H21; ΣD represents an associating amino acid which is a D-alpha aminocarboxylic acid in which the associating functional group is a side-chain residue consisting an unbranched —C10H21. These cyclic oligopeptides were prepared as solutions in distilled water at a concentration of 1 mg/ml. • 2. J774-1 cells (a macrophage cell line) were plated out in all the wells of a 24-well cluster plates at a seeding density of 3×10^5 cells/ml/well (1 ml RPMI 1640 culture medium per well), and incubated overnight at 37° C. in 5% CO2/air. • 3. The following day, the solutions from step 1 were administered to eighteen wells containing cells in step 2, to give three wells each with a final concentration of 50 ug/ml. The remaining wells were left untreated. The plate was incubated for a further four hours at 37 degC. • 4. Lipopolysaccharide (from E. coli strain 0111 B4) was added to the wells receiving the octapeptide solutions, as well as three of the wells receiving no peptide. The concentration of lipopolysaccharide was 1.25 ug/ml. • 5. The plate was incubated overnight, and the following day the supernatants were assayed for TNF using a commercial ELISA kit.

[5] = tested on: J774A.1 cells (a macrophage cell line); test: Suppression of LPS-stimulated TNF secretion by peptide formulated with hydroxypropyl beta-cyclodextrin (Example 4); assay type: cell-based
Procedure: • 1. A cyclic octapeptide with the structure cyclo(-DF-S-Σ-R-DF-S-Σ-R-) was prepared as a solution in transcutol at a concentration of 5 mg/ml, where Σ represents the associating amino acid as an L-alpha aminocarboxylic acid and the associating functional group borne on the associating amino acid as a side-chain residue consisting of a straight aliphatic chain containing ten carbon atoms. • 2. Six separate aliquots of 200 ul of the solution in step 1 were transferred to fresh 8 ml vials and mixed with slow vortexing with 800 ul of a solution of hydroxy-propyl beta cyclodextrin at a concentration 50, 25, 12.5, 6.25, 3.125 or 1.5625 mg/ml in distilled water • 2. J774A.1 cells (a macrophage cell line) were plated out in all the wells of a 24-well cluster plates at a seeding density of 5×10^5 cells/ml/well (1 ml RPMI 1640 culture medium per well), and incubated overnight at 37° C. in 5% CO2/air. • 3. The following day, each of the solutions from step 1 were administered in appropriate volumes to wells containing cells in step 2, to give three wells each with a final concentration of 8, 4, or 2 ug/ml. The remaining wells were left untreated. The plate was incubated for a further four hours at 37 degC. • 4. Lipopolysaccharide (from E. coli strain 0111 B4) was added to the wells receiving the octapeptide solution, as well as three of the wells receiving no peptide. The final concentration of lipopolysaccharide was 0.625 ug/ml. • 5. The plate was incubated overnight, and the following day the supernatants were assayed for TNF using a commercial ELISA kit.

TNF = test: Suppression of TNF secretion stimulated by LPS in rats (Example 5); assay type: in vivo
Procedure: • 1. A cyclic octapeptide with the structure cyclo(-DF-S-Σ-R-DF-S-ΣR-), where Σ represents the associating amino acid as an L-alpha aminocarboxylic acid and the associating functional group borne on the associating amino acid as a side-chain residue consisting of a straight aliphatic chain containing ten carbon atoms, was prepared as a solution in transcutol and hydroxypropyl beta-cyclodextrin as described in example 4, where the concentration of peptide was 1 mg/ml, and the final concentration of cyclodextrin was 40 mg/ml. • 2. Rats weighing 250 g were injected i.p. with 1 ml of peptide solution (1 mg peptide per rat). A second group of rats received 1 ml of the transcutol/cyclodextrin vehicle containing no peptide. One hour later, the rats were further injected with 1 mg of lipopolysaccharide (from Salmonella abortus equi). • 3. 150 minutes later, blood samples were taken, and TNF levels measured in the two groups by ELISA.

Glatiramer acetate [Copaxone]
TNF secretion in vitro (TNF secretion): down-regulate TNF secretion in vitro

cyclo(-A-K-Σ-E-Y-K-A-Σ-Y-E-) (cyclo(AK[Gly(decyl)]EYKA[Gly(decyl)]YE); SMILES CCCCCCCCCC[C@@H]1NC(=O)[C@H](C)NC(=O)[C@H](CCCCN)NC(=O)[C@H](Cc2ccc(O)cc2)NC(=O)[C@H](CCC(=O)O)NC(=O)[C@H](CCCCCCCCCC)NC(=O)[C@H](CCCCN)NC(=O)[C@H](C)NC(=O)[C@H](CCC(=O)O)NC(=O)[C@H](Cc2ccc(O)cc2)NC1=O) [cyclo(-A-K-Σ-E-Y-K-A-Σ-Y-E), cyclic analogue of Copaxone; Σ = L-alpha aminocarboxylic acid with straight C10 side chain]
TNF concentration [1]: 928.8 pg/mL

cyclo(-A-K-Σ-Y-E-K-A-Σ-E-Y-) [cyclo(-A-K-Σ-Y-E-K-A-Σ-E-Y)]
effect on TNF secretion by macrophages compared with Copaxone ([1]; in words): displays the same effect on TNF secretion by macrophages
TNF concentration [1]: 486.9 pg/mL

cyclo(-DF-R-Σ4-S-DF-R-Σ4-S-)
Concentration of TNF [2]: 664.4 pg/mL

cyclo(-DF-R-Σ10-S-DF-R-Σ10-S-)
Concentration of TNF [2]: 268.5 pg/mL

cyclo(-DF-S-Σ4-R-DF-S-Σ4-R-)
Concentration of TNF [2]: 621.1 pg/mL

cyclo(-DF-S-Σ10-R-DF-S-Σ10-R-)
Concentration of TNF [2]: 85.7 pg/mL

cyclo(-DF-S-Σ-R-DF-S-Σ-R-)
TNF concentration ([3]; peptide 3.125 ug/ml, LPS alone 1780.09): 1494.53 pg/mL
TNF concentration ([3]; peptide 6.25 ug/ml): 1346.20 pg/mL
TNF concentration ([3]; peptide 12.5 ug/ml): 1037.31 pg/mL
TNF concentration ([3]; peptide 25.0 ug/ml): 621.75 pg/mL
TNF concentration ([3]; peptide 50.0 ug/ml): 613.70 pg/mL
Concentration of TNF [4]: 865.4 pg/mL
inhibition of TNF secretion ([5]; in words, down to 2 ug/ml in the well, cyclodextrin from 40:1 wt:wt downwards): significant inhibition
TNF concentration ([5]; peptide 2 ug/ml, cyclodextrin:peptide 1.25 by weight): 2161.8 pg/mL
TNF concentration ([5]; peptide 2 ug/ml, cyclodextrin:peptide 2.5 by weight): 2314.2 pg/mL
TNF concentration ([5]; peptide 2 ug/ml, cyclodextrin:peptide 5 by weight): 2177.2 pg/mL
TNF concentration ([5]; peptide 2 ug/ml, cyclodextrin:peptide 10 by weight): 2278.3 pg/mL
TNF concentration ([5]; peptide 2 ug/ml, cyclodextrin:peptide 20 by weight): 2223.9 pg/mL
TNF concentration ([5]; peptide 2 ug/ml, cyclodextrin:peptide 40 by weight, LPS 0.625 ug/ml, no peptide 2519.3): 2450.2 pg/mL
TNF concentration ([5]; peptide 4 ug/ml, cyclodextrin:peptide 1.25 by weight): 1599.9 pg/mL
TNF concentration ([5]; peptide 4 ug/ml, cyclodextrin:peptide 2.5 by weight): 1538.7 pg/mL
TNF concentration ([5]; peptide 4 ug/ml, cyclodextrin:peptide 5 by weight): 1477.5 pg/mL
TNF concentration ([5]; peptide 4 ug/ml, cyclodextrin:peptide 10 by weight): 1474.8 pg/mL
TNF concentration ([5]; peptide 4 ug/ml, cyclodextrin:peptide 20 by weight): 1488.1 pg/mL
TNF concentration ([5]; peptide 4 ug/ml, cyclodextrin:peptide 40 by weight): 1646.5 pg/mL
TNF concentration ([5]; peptide 8 ug/ml, cyclodextrin:peptide 1.25 by weight): 1130.9 pg/mL
TNF concentration ([5]; peptide 8 ug/ml, cyclodextrin:peptide 2.5 by weight): 1105.7 pg/mL
TNF concentration ([5]; peptide 8 ug/ml, cyclodextrin:peptide 5 by weight): 1140.6 pg/mL
TNF concentration ([5]; peptide 8 ug/ml, cyclodextrin:peptide 10 by weight): 1218.7 pg/mL
TNF concentration ([5]; peptide 8 ug/ml, cyclodextrin:peptide 20 by weight): 1298.4 pg/mL
TNF concentration ([5]; peptide 8 ug/ml, cyclodextrin:peptide 40 by weight): 1276.9 pg/mL
TNF (blood) (TNF; 1 mg peptide i.p. in transcutol/cyclodextrin, 1 mg LPS one hour later, blood 150 minutes later, vehicle 10717): 2370 pg/mL
reduction of TNF production versus vehicle (TNF; 1 mg peptide i.p., LPS stimulus): greater than 75%
